The values below come from patent US7199148B2, “Broadspectrum substituted oxindole sulfonamide HIV protease inhibitors” (priority 2002, dated 2007).

Type in all cases: cell-based
For data set [1], the system named is HIV strain E. Nature of the data set: Antiviral spectrum, clinically isolated mutant strain E. The conditions noted are these: FR=EC50(mutant strain)/EC50(HIV-1 strain LAI). The method, then:
(§1) HIV- or mock-infected MT4 cells were incubated for five days in the presence of various concentrations of the inhibitor. At the end of the incubation period, all HIV-infected cells have been killed by the replicating virus in the control cultures in the absence of any inhibitor. Cell viability is measured by measuring the concentration of MTT, a yellow, water soluble tetrazolium dye that is converted to a purple, water insoluble formazan in the mitochondria of living cells only. Upon solubilization of the resulting formazan crystals with isopropanol, the absorbance of the solution is monitored at 540 nm. The values correlate directly to the number of living cells remaining in the culture at the completion of the five day incubation. The inhibitory activity of the compound was monitored on the virus-infected cells and was expressed as EC50 and EC90. These values represent the amount of the compound required to protect 50% and 90%, respectively, of the cells from the cytopathogenic effect of the virus. The toxicity of the compound was measured on the mock-infected cells and was expressed as CC50, which represents the concentration of compound required to inhibit the growth of the cells by 50%. The selectivity index (SI) (ratio CC50/EC50) is an indication of the selectivity of the anti-HIV activity of the inhibitor. Wherever results are reported as e.g. pEC50 or pCC50 values, the result is expressed as the negative logarithm of the result expressed as EC50 or CC50 respectively.
(§2) Because of the increasing emergence of drug resistant HIV strains, the present compounds were tested for their potency against clinically isolated HIV strains harboring several mutations (Table 2 and 3). These mutations are associated with resistance to protease inhibitors and result in viruses that show various degrees of phenotypic cross-resistance to the currently commercially available drugs such as for instance saquinavir, ritonavir, nelfinavir, indinavir and amprenavir.
(§3) As a measure of the broad spectrum activity of the present compounds, the fold resistance (FR), defined as FR=EC50(mutant strain)/EC50(HIV-1 strain LAI), was determined.

The subject of data set [2] is HIV strain A. Nature of the data set: Antiviral spectrum, clinically isolated mutant strain A. As to conditions: FR=EC50(mutant strain)/EC50(HIV-1 strain LAI). The method, then:
as §1, §2, §3

Data set [3] deals with HIV strain D. In words: Antiviral spectrum, clinically isolated mutant strain D. As to conditions: FR=EC50(mutant strain)/EC50(HIV-1 strain LAI). The procedure: as §1, §2, §3
Data set [4] is described as follows: Toxicity on mock-infected MT4 cells (MTT). The conditions noted are these: human. The method, then: as §1, §3
Data set [5] deals with HIV-1 strain LAI. In words: Cellular anti-HIV assay, MT4 cells, MTT read-out, wild type strain. The method, then: as §1, with “The compounds of the present invention were examined for anti-viral activity in a cellular assay. […] The cellular assay was performed according to the following procedure. HIV- or” for “HIV- or”
Data set [6] has as its system HIV strain F. Nature of the data set: Antiviral spectrum, clinically isolated mutant strain F. The conditions noted are these: FR=EC50(mutant strain)/EC50(HIV-1 strain LAI). The procedure: as §1, §2, §3
In data set [7] the test system is HIV strain B. Nature of the data set: Antiviral spectrum, clinically isolated mutant strain B. The conditions noted are these: FR=EC50(mutant strain)/EC50(HIV-1 strain LAI). The method, then: as §1, §2, §3
Data set [8] has as its system HIV strain C. In words: Antiviral spectrum, clinically isolated mutant strain C. As to conditions: FR=EC50(mutant strain)/EC50(HIV-1 strain LAI). The method, then: as §1, §2, §3

Like-named read-outs stand apart in the source and are kept apart here.

In the case of `CC(C)C=C1C(=O)Nc2ccc(S(=O)(=O)N(CC(C)C)CC(O)C(Cc3ccccc3)NC(=O)OC3COC4OCCC34)cc21` (stereo not drawn) [Compound 6, {1-Benzyl-2-hydroxy-3-[isobutyl-(3-isobutylidene-2-oxo-2,3-dihydro-1H-indole-5-sulfonyl)-amino]-propyl}-carbamic acid hexahydro-furo[2,3-b]furan-3-yl ester], the “E (FR towards mutant E)” value in data set [1] was 2.0. For the same molecule, in data set [2], the “A (FR towards mutant A)” value is on record as 2.5. In data set [3], the “D (FR towards mutant D)” value turned out to be 1.4. This molecule also showed a CC50 at 5 days in data set [4] of 50100 nM. In addition, the EC50 in data set [5] (Human immunodeficiency virus 1, 120 h, Table 1, MT4 cells, five days incubation, HIV-1 strain LAI, read-out: pEC50 (converted)) is 19.5 nM; in data set [5] (Human immunodeficiency virus 1, MT4, Table 3, wild type HIV-LAI strain, read-out: WT (pEC50) (converted)), 20 nM. For the same molecule, the “F (FR towards mutant F)” value in data set [6] stood at 7.9. The “B (FR towards mutant B)” value in data set [7] is recorded as 7.1. Also, the “C (FR towards mutant C)” value in data set [8] was 1.6.

By CC50 is commonly meant the concentration that lowers cell viability or growth by half. A low value points to harm at low concentration.
